This is an account of results in ChEMBL document CHEMBL1212818, “Polyamines inhibit carbonic anhydrases by anchoring to the zinc-coordinated water molecule” (J Med Chem, 2010).

Targets include Carbonic anhydrase 12 (Homo sapiens, UniProt O43570); Carbonic anhydrase 1 (Homo sapiens, UniProt P00915); Carbonic anhydrase 2 (Homo sapiens, UniProt P00918); Carbonic anhydrase 3 (Homo sapiens, UniProt P07451); Carbonic anhydrase 4 (Homo sapiens, UniProt P22748); Carbonic anhydrase 6 (Homo sapiens, UniProt P23280); Carbonic anhydrase 7 (Homo sapiens, UniProt P43166); Carbonic anhydrase 13 (Mus musculus, UniProt Q9D6N1); Carbonic anhydrase 14 (Homo sapiens, UniProt Q9ULX7); Carbonic anhydrase 9 (Homo sapiens, UniProt Q16790).

The next test has as its target T1, Carbonic anhydrase 15 (Mus musculus, UniProt Q99N23).
T1 sequence (Q99N23 whole entry): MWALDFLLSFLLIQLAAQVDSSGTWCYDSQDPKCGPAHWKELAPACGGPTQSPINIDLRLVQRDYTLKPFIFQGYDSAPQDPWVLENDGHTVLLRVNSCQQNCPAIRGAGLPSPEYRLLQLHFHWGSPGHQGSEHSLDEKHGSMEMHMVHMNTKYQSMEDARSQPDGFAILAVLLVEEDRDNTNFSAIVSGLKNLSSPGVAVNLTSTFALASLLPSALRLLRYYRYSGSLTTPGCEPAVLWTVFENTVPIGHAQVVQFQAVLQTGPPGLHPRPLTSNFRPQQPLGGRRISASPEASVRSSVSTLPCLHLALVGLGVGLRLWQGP

Test [1] addresses Carbonic anhydrase 5A, mitochondrial (Homo sapiens, UniProt P35218).
The target of test [2] is Carbonic anhydrase 5B, mitochondrial (Homo sapiens, UniProt Q9Y2D0).
Chain of Carbonic anhydrase 5B, mitochondrial (Q9Y2D0 whole entry): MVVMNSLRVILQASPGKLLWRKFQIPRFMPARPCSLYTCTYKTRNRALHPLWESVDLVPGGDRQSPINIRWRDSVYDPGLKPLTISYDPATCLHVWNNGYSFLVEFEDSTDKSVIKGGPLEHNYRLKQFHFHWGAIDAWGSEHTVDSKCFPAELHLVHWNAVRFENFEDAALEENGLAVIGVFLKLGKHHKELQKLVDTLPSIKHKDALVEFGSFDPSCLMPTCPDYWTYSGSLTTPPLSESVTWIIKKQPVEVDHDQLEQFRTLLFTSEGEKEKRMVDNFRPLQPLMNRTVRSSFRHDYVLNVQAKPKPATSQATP

Chain of Carbonic anhydrase 1 (P00915 whole entry): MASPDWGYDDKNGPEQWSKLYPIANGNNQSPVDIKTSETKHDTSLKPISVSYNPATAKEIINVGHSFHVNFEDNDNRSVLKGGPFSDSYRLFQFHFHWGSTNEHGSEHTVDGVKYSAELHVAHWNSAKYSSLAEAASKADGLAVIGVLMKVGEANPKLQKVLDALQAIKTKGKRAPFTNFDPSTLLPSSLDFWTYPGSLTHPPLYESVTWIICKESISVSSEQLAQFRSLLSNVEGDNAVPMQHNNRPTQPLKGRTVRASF
Chain of Carbonic anhydrase 7 (P43166 whole entry): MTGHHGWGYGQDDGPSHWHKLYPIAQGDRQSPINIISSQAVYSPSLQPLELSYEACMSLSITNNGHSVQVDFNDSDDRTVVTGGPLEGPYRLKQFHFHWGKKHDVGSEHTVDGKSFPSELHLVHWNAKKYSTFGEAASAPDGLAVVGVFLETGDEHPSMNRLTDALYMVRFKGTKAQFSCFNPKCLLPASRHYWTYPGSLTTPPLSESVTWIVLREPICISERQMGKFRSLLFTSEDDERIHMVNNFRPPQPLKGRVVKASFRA
Chain of Carbonic anhydrase 3 (P07451 whole entry): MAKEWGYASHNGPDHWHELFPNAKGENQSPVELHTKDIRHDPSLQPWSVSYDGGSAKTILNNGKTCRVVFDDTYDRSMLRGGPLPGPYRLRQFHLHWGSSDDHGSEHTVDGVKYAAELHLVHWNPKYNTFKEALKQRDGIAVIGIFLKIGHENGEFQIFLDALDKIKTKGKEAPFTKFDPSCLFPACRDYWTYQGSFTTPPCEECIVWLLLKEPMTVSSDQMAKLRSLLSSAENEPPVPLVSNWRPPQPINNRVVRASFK
Chain of Carbonic anhydrase 12 (O43570 whole entry): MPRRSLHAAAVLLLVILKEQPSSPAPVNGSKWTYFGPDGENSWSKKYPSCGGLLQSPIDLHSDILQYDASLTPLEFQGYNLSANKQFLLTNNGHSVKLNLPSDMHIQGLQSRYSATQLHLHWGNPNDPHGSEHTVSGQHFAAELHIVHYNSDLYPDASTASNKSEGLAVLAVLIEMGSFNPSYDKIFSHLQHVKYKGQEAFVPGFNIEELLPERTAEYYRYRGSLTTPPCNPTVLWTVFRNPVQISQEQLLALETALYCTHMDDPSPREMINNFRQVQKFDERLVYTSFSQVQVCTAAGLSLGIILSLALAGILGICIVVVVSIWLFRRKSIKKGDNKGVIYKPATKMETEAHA
Chain of Carbonic anhydrase 5A, mitochondrial (P35218 whole entry): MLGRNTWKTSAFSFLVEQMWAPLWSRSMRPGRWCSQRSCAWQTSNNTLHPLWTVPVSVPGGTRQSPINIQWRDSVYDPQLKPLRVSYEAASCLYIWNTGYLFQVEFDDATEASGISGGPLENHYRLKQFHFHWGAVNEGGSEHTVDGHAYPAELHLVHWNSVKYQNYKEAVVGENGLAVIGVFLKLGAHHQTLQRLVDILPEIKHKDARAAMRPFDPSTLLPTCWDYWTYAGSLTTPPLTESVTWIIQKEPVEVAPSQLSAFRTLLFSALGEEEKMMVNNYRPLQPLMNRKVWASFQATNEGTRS
Chain of Carbonic anhydrase 13 (Q9D6N1 whole entry): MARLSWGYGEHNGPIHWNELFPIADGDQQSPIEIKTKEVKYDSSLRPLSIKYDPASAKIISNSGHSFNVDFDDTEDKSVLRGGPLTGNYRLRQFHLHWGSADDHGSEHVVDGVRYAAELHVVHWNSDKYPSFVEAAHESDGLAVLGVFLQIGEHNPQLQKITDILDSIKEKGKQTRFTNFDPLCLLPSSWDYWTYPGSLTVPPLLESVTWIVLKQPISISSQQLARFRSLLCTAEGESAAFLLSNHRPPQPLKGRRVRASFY
Chain of Carbonic anhydrase 6 (P23280 whole entry): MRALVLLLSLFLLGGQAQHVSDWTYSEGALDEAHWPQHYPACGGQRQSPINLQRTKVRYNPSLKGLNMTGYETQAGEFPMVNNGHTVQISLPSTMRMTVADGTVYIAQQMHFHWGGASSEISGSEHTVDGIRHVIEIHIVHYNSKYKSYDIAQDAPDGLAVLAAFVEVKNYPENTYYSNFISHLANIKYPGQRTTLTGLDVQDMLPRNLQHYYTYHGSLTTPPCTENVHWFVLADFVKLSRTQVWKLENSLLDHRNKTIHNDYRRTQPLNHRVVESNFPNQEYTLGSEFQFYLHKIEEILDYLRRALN
Chain of Carbonic anhydrase 14 (Q9ULX7 whole entry): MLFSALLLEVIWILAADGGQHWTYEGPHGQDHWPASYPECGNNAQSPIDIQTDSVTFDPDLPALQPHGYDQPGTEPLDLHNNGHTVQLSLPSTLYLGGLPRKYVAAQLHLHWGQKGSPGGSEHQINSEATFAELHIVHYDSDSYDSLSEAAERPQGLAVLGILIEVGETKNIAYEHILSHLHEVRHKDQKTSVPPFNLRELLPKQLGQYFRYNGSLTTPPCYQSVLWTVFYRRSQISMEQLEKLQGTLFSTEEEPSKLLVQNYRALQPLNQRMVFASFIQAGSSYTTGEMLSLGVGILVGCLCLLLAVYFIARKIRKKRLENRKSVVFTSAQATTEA
Chain of Carbonic anhydrase 4 (P22748 whole entry): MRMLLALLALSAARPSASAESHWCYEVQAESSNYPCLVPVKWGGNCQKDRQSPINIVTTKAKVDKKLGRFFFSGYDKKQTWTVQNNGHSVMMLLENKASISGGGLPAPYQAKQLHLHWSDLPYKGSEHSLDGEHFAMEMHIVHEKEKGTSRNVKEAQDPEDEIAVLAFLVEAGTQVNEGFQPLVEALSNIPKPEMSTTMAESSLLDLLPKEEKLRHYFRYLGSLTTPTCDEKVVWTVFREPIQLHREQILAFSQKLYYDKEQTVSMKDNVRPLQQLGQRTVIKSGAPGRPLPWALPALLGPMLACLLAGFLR

Usually Ki stands for the equilibrium dissociation constant of an inhibitor or competing ligand from its target. Consider `NCCCCCN`, for which the Ki at Carbonic anhydrase 12 was 0.45 µM; at Carbonic anhydrase 15, 0.65 µM; on Carbonic anhydrase 1, 13.3 µM; on Carbonic anhydrase 2, 11 µM; at Carbonic anhydrase 3, 0.5 µM; on Carbonic anhydrase 4 it was 0.052 µM. For the same compound, the Ki worked out at 0.044 µM in test [1]; 0.54 µM in [2]; 0.74 µM on Carbonic anhydrase 6; 420 nM on Carbonic anhydrase 7; 0.63 µM at Carbonic anhydrase 13; 0.5 µM on Carbonic anhydrase 14.
As to `CC(C)(C)OC(=O)N(CCCCN(CCCNC(=O)C(F)(F)F)C(=O)OC(C)(C)C)CCCNC(=O)C(F)(F)F`, the Ki at Carbonic anhydrase 12 was 175 µM; at Carbonic anhydrase 15, above 500 µM; on Carbonic anhydrase 1, above 500 µM; on Carbonic anhydrase 2, 107 µM; at Carbonic anhydrase 3, 112 µM; on Carbonic anhydrase 4, 104 µM. For the same compound, the Ki amounted to 125 µM in test [1]; 103 µM in test [2]; 104 µM on Carbonic anhydrase 6; 107000 nM on Carbonic anhydrase 7; 179 µM on Carbonic anhydrase 13; 85 µM on Carbonic anhydrase 14.
With `NCCNCCCNCCN`, the Ki on Carbonic anhydrase 9 worked out at 48 µM; on Carbonic anhydrase 12, 68 µM; on Carbonic anhydrase 15, 66 µM; on Carbonic anhydrase 1 it was 115 µM; on Carbonic anhydrase 2, 75 µM; at Carbonic anhydrase 3, 63 µM. Besides, the Ki at Carbonic anhydrase 4 worked out at 44 µM; in test [1] it was 50 µM; in test [2] it was 59 µM; at Carbonic anhydrase 6, 53 µM; at Carbonic anhydrase 7, 58000 nM; on Carbonic anhydrase 13, 66 µM. For the same compound, the Ki on Carbonic anhydrase 14 was 36 µM.
For the compound `CN(C)CCN(C)CCN(C)CCN(C)C`, the inhibition constant (Ki) on Carbonic anhydrase 9 is 0.31 µM; at Carbonic anhydrase 12 it was 0.52 µM; on Carbonic anhydrase 15, 0.76 µM; at Carbonic anhydrase 1 it was above 500 µM; on Carbonic anhydrase 2, 11.2 µM; at Carbonic anhydrase 3, 0.52 µM. In addition, the Ki on Carbonic anhydrase 4 is 0.053 µM; in [1], 0.047 µM; in test [2] it was 0.71 µM; on Carbonic anhydrase 6 it was 0.78 µM; at Carbonic anhydrase 7, 730 nM; at Carbonic anhydrase 13, 0.58 µM. The compound further had a Ki at Carbonic anhydrase 14 of 0.74 µM.
For the compound `NCCNc1cccc2ccccc12`, the Ki on Carbonic anhydrase 9 was 0.51 µM; at Carbonic anhydrase 12, 0.38 µM; at Carbonic anhydrase 15, 0.57 µM; on Carbonic anhydrase 1 it was above 500 µM; at Carbonic anhydrase 2 it was 103 µM; on Carbonic anhydrase 3 it was 0.42 µM. Besides, the inhibition constant Ki on Carbonic anhydrase 4 was found to be 0.058 µM; in [1] it was 0.048 µM; in test [2] it was 0.061 µM; on Carbonic anhydrase 6 it was 0.64 µM; on Carbonic anhydrase 7, 360 nM; at Carbonic anhydrase 13, 0.62 µM. The compound also registered an inhibition constant (Ki) at Carbonic anhydrase 14 of 0.59 µM.
In the case of `O=C(NCCCNCCCCNCCCNC(=O)C(F)(F)F)C(F)(F)F`, the Ki was 11.4 µM at Carbonic anhydrase 9; 10.2 µM on Carbonic anhydrase 12; 110 µM on Carbonic anhydrase 15; 136 µM at Carbonic anhydrase 1; 11.3 µM on Carbonic anhydrase 2; 11.5 µM on Carbonic anhydrase 3. For the same compound, the Ki turned out to be 0.116 µM on Carbonic anhydrase 4; 1.26 µM in test [1]; 1.05 µM in [2]; 1.1 µM at Carbonic anhydrase 6; 1090 nM at Carbonic anhydrase 7; 12.6 µM on Carbonic anhydrase 13. At Carbonic anhydrase 14, this compound showed a Ki of 6.7 µM.
In the case of `O=C(NCCNCCCNCCNC(=O)C(F)(F)F)C(F)(F)F`, the Ki at Carbonic anhydrase 9 is 117 µM; at Carbonic anhydrase 12 it was 112 µM; on Carbonic anhydrase 15 it was 104 µM; on Carbonic anhydrase 1, 122 µM; on Carbonic anhydrase 2, 112 µM; at Carbonic anhydrase 3, 96 µM. For the same compound, the Ki at Carbonic anhydrase 4 was found to be 108 µM; in [1], 62 µM; in [2], 54 µM; at Carbonic anhydrase 6 it was 156 µM; at Carbonic anhydrase 7, 108000 nM; at Carbonic anhydrase 13 it was 131 µM. Moreover, the Ki on Carbonic anhydrase 14 turned out to be 125 µM.
`CC(C)(C)OC(=O)N(CCCN(CCNC(=O)C(F)(F)F)C(=O)OC(C)(C)C)CCNC(=O)C(F)(F)F`: the Ki at Carbonic anhydrase 9, at Carbonic anhydrase 12, at Carbonic anhydrase 15, on Carbonic anhydrase 1, on Carbonic anhydrase 2 and at Carbonic anhydrase 3 was above 500 µM each time. Further, the Ki was 309 µM at Carbonic anhydrase 4; 416 µM in [1]; 401 µM in test [2]; above 500 µM at Carbonic anhydrase 6; above 500000 nM on Carbonic anhydrase 7; above 500 µM at Carbonic anhydrase 13. The same compound yielded a Ki at Carbonic anhydrase 14 above 500 µM.
As for `O=C(NCCNCCNCCNC(=O)C(F)(F)F)C(F)(F)F`, the Ki on Carbonic anhydrase 9, at Carbonic anhydrase 12, at Carbonic anhydrase 15, on Carbonic anhydrase 1, at Carbonic anhydrase 2 and at Carbonic anhydrase 3 was above 500 µM each time. For the same compound, the Ki was above 500 µM on Carbonic anhydrase 4; above 500 µM in test [1]; above 500 µM in test [2]; above 500 µM at Carbonic anhydrase 6; above 500000 nM at Carbonic anhydrase 7; above 500 µM at Carbonic anhydrase 13. Further, the Ki at Carbonic anhydrase 14 is above 500 µM.
As for `CC(C)(C)OC(=O)N(CCNC(=O)C(F)(F)F)CCN(CCNC(=O)C(F)(F)F)C(=O)OC(C)(C)C`, the Ki on Carbonic anhydrase 9, at Carbonic anhydrase 12, at Carbonic anhydrase 15, at Carbonic anhydrase 1, on Carbonic anhydrase 2 and on Carbonic anhydrase 3 was above 500 µM throughout. For the same compound, the Ki at Carbonic anhydrase 4 was above 500 µM; in test [1], above 500 µM; in [2], above 500 µM; on Carbonic anhydrase 6, above 500 µM; at Carbonic anhydrase 7 it was above 500000 nM; at Carbonic anhydrase 13, above 500 µM. For the same compound, at Carbonic anhydrase 14, the Ki was above 500 µM.
As to `CC(=O)NCCNc1cccc2ccccc12`, the Ki was 12.2 µM at Carbonic anhydrase 9; 21.5 µM on Carbonic anhydrase 12; 110 µM on Carbonic anhydrase 15; above 500 µM at Carbonic anhydrase 1; 121 µM at Carbonic anhydrase 2; 128 µM on Carbonic anhydrase 3. In addition, the Ki on Carbonic anhydrase 4 was determined as 12.3 µM; in test [1], 106 µM; in test [2], 107 µM; on Carbonic anhydrase 6, 109 µM; at Carbonic anhydrase 7, 1240 nM; at Carbonic anhydrase 13, 127 µM. The compound further yielded a Ki at Carbonic anhydrase 14 of 34 µM.
In the case of `CC(C)(C)OC(=O)N(CCCN)CCCCN(CCCN)C(=O)OC(C)(C)C`, the Ki at Carbonic anhydrase 9 amounted to 144 µM; at Carbonic anhydrase 12, 165 µM; at Carbonic anhydrase 15 it was 236 µM; at Carbonic anhydrase 1, 137 µM; on Carbonic anhydrase 2 it was 110 µM; on Carbonic anhydrase 3, 132 µM. The Ki is 103 µM at Carbonic anhydrase 4; 131 µM in test [1]; 107 µM in test [2]; 114 µM on Carbonic anhydrase 6; 108000 nM at Carbonic anhydrase 7; 136 µM at Carbonic anhydrase 13. The same compound gave a Ki at Carbonic anhydrase 14 of 115 µM.
Consider `NCCCCCCN`, for which the Ki on Carbonic anhydrase 9 was determined as 0.41 µM; at Carbonic anhydrase 12 it was 0.37 µM; on Carbonic anhydrase 15, 0.66 µM; on Carbonic anhydrase 1, 12.6 µM; at Carbonic anhydrase 2, 34.4 µM; at Carbonic anhydrase 3, 0.6 µM. For the same compound, the Ki on Carbonic anhydrase 4 was 0.45 µM; in test [1], 0.61 µM; in [2], 0.58 µM; at Carbonic anhydrase 6, 0.72 µM; on Carbonic anhydrase 7 it was 440 nM; on Carbonic anhydrase 13, 0.69 µM. The affinity at Carbonic anhydrase 14 corresponds to a Ki of 0.64 µM.
As for `NCCNCCN`, the Ki came out at 10.6 µM on Carbonic anhydrase 9; 11.4 µM on Carbonic anhydrase 12; 105 µM on Carbonic anhydrase 15; 415 µM on Carbonic anhydrase 1; 118 µM on Carbonic anhydrase 2; 117 µM on Carbonic anhydrase 3. The Ki amounted to 116 µM at Carbonic anhydrase 4; 110 µM in test [1]; 11 µM in [2]; 11.5 µM on Carbonic anhydrase 6; 12100 nM at Carbonic anhydrase 7; 11.5 µM at Carbonic anhydrase 13. For the same compound, at Carbonic anhydrase 14, the inhibition constant (Ki) was found to be 10.1 µM.
Regarding `Oc1ccccc1` [PHENOL], the Ki was above 500 µM in [2], above 500000 nM on Carbonic anhydrase 7 and above 500 µM on Carbonic anhydrase 13.
With `NCCCCNCCCN` [SPERMIDINE], the inhibitory constant (Ki) on Carbonic anhydrase 9 turned out to be 1.37 µM; on Carbonic anhydrase 12, 44.1 µM; on Carbonic anhydrase 15, 10 µM; on Carbonic anhydrase 1, 1.4 µM; on Carbonic anhydrase 2, 1.11 µM; at Carbonic anhydrase 3, 11.5 µM. The Ki on Carbonic anhydrase 4 came to 0.112 µM; in test [1], 1.22 µM; in test [2] it was 1.44 µM; at Carbonic anhydrase 6 it was 1.41 µM; on Carbonic anhydrase 7, 1230 nM; at Carbonic anhydrase 13, 11.6 µM. The Ki on Carbonic anhydrase 14 was 1 µM.
With `NCCCNCCCCNCCCN` [SPERMINE], the Ki is 13.3 µM at Carbonic anhydrase 9; 27.6 µM at Carbonic anhydrase 12; 74 µM at Carbonic anhydrase 15; 231 µM at Carbonic anhydrase 1; 167 µM at Carbonic anhydrase 3; 0.84 µM in test [1]. For the same compound, the inhibitory constant (Ki) in [2] worked out at 0.83 µM; on Carbonic anhydrase 6 it was 0.99 µM; at Carbonic anhydrase 7 it was 710 nM; on Carbonic anhydrase 13 it was 22.6 µM; on Carbonic anhydrase 14, 0.86 µM.
